In patent US8637528B2, “Use of PDE7 inhibitors for the treatment of movement disorders” (Omeros Corporation, priority 2007, dated 2014):

Key:
[1] = target: Monoamine Oxidase MAO-B (Homo sapiens (Human), UniProt P27338); experiment: Monoamine Oxidase MAO-B enzyme assay; type: biochemical
[2] = target: Tyrosine Hydroxylase (Rattus norvegicus (Rat), UniProt P04177); experiment: Tyrosine Hydroxylase enzyme assay; type: biochemical; conditions: 10.0 μM
Procedure: Tyrosine Hydroxylase was assayed as described in Roskoski, R., Jr., et al., J. Biochem 218:363-370 (1993) with the following modifications. Tyrosine Hydroxylase was isolated from Wistar rat brain. The substrate was 100 μM L-[3,5-^3H]Tyrosine+L-Tyrosine. The vehicle control was 1% DMSO. Compound OM69 was tested at 10 μM in incubation buffer (125 mM MES, pH 6.0, 0.5 mg/ml Catalase, 12.5 mM DTT, 0.5 mM (6R)-5,6,7,8-Tetrahydrobiopterin). The reaction was pre-incubated for 15 minutes at 37° C. Tyrosine Hydroxylase enzyme was added, and the reaction was incubated for 20 minutes at 37° C. [^3H]-H20 was quantitated.

[3] = target: Dopamine D1 receptor (Homo sapiens (Human), UniProt P21728); experiment: Dopamine D1 radioligand binding assay; conditions: 10.0 μM
[4] = target: Dopamine D3 receptor (Homo sapiens (Human), UniProt P35462); experiment: Dopamine D3 radioligand binding assay; conditions: 10.0 μM
[5] = target: Dopamine D5 receptor (Homo sapiens (Human), UniProt P21918); experiment: Dopamine D5 radioligand binding assay; conditions: 10.0 μM
[6] = target: Dopamine Transporter (DAT) (Homo sapiens (Human), UniProt Q01959); experiment: Dopamine Transporter (DAT) radioligand binding assay; conditions: 10.0 μM
[7] = target: Adenosine A2A receptor (Homo sapiens (Human), UniProt P29274); experiment: Adenosine A2A receptor radioligand binding assay
Procedure: An Adenosine A2A receptor radioligand binding assay was carried out as described in Varani, K., et al., Br. J. Pharmacol. 117:1693-1701, 1996, with the following modifications. Human recombinant A2A receptor was expressed in HEK-293 cells. The ligand used in the assay was 0.05 μM [^3H]CGS-21680. The non-specific ligand was 50 μM NECA. The vehicle control was 1% DMSO. Compound OM69 was tested at 10 μM in incubation buffer (50 mM Tris-HCL, pH 7.4, 10 mM MgCl2, 1 mM EDTA, 2 U/mL Adenosine Deaminase). The reaction was incubated for 90 minutes at 25° C. Radioligand binding was quantitated. […]

Sequence of Monoamine Oxidase MAO-B (P27338 whole entry, looked up): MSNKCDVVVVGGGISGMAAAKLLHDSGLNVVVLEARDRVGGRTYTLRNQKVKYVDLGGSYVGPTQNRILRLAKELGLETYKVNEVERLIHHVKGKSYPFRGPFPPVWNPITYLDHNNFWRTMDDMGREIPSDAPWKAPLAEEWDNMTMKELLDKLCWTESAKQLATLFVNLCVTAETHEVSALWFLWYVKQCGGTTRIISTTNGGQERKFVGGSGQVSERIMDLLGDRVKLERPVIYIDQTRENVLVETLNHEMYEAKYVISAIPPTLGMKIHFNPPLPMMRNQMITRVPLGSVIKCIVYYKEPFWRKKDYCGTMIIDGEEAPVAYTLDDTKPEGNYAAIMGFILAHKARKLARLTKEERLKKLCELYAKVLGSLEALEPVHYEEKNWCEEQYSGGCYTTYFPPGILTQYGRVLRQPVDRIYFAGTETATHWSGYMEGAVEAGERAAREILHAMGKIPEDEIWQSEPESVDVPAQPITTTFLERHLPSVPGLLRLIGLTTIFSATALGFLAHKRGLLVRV
Sequence of Adenosine A2A receptor (P29274 whole entry): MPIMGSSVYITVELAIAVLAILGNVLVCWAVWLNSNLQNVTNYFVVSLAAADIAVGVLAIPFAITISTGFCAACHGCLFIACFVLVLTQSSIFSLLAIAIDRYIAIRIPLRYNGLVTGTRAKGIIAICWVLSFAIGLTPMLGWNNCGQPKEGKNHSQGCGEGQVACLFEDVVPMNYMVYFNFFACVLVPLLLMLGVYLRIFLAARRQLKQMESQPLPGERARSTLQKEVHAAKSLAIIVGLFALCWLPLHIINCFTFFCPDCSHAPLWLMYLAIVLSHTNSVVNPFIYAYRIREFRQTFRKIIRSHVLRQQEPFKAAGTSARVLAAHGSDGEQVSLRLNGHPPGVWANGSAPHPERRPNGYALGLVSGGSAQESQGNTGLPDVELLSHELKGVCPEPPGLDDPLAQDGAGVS
Sequence of Dopamine D1 receptor (P21728 whole entry): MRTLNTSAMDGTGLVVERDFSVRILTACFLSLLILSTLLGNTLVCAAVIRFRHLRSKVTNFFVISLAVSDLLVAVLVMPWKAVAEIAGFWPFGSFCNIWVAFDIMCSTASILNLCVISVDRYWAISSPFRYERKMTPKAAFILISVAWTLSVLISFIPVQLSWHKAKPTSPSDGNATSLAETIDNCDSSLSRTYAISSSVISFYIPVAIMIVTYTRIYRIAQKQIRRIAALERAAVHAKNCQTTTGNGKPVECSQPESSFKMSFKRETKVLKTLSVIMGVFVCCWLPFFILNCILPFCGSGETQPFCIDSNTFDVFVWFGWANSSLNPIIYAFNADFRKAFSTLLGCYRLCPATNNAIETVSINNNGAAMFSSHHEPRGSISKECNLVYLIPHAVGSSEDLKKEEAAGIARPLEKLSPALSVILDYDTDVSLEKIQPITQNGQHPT
Sequence of Dopamine D5 receptor (P21918 whole entry): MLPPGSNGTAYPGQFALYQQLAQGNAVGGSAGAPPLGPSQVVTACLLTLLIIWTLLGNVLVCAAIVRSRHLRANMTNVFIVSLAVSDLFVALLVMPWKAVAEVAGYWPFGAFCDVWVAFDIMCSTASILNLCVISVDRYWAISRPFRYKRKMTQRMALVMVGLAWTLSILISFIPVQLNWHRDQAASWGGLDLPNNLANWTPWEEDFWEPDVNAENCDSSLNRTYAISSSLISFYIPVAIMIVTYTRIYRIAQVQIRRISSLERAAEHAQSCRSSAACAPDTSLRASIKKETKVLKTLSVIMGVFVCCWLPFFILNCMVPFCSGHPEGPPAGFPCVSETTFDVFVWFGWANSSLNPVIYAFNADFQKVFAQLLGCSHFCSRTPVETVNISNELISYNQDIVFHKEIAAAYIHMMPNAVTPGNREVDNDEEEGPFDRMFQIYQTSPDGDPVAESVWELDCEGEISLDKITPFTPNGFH
Sequence of Tyrosine Hydroxylase (P04177 whole entry): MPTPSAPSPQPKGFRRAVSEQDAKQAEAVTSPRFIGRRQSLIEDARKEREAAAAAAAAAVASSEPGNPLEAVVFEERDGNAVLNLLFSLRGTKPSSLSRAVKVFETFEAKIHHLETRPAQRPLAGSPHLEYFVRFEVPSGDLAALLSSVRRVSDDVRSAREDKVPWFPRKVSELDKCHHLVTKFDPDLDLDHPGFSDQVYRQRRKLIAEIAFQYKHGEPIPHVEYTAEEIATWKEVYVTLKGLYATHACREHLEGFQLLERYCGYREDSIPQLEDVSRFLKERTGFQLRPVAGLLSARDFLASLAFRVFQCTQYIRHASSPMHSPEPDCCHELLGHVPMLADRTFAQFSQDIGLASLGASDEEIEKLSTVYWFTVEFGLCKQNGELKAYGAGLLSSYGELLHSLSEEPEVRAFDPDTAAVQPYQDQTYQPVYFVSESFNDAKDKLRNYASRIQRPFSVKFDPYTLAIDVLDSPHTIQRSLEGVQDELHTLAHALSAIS
Sequence of Dopamine D3 receptor (P35462 whole entry): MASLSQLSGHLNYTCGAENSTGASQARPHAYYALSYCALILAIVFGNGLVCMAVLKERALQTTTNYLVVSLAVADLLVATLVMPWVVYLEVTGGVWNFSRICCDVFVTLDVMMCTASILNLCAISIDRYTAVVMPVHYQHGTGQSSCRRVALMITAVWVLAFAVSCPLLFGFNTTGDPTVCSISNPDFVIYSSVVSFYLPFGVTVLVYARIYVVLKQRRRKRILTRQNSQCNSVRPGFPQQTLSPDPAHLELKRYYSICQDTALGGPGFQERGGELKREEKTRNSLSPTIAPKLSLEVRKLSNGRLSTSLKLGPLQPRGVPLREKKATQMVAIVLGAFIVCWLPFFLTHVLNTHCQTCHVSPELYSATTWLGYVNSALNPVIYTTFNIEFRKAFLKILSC

COc1cc(N)ccc1-c1cc2c(c(=O)[nH]1)C(C1CCCCC1)N=[N+]2C (stereo not drawn) [OM69]
percent inhibition of MAO-B enzymatic activity ([1]; Exp #1, 10.0 μM): 49.0% | percent inhibition of MAO-B enzymatic activity ([1]; Exp #2, 1.0 μM): 27% | percent inhibition of MAO-B enzymatic activity ([1]; Exp #2, 10.0 μM): 67.0% | IC50 ([1]; estimated from 27% inhibition at 1 μM, read-out: MAO-B IC50 indicated by the percentage inhibition): ~2700 nM | inhibition of MAO-B at brain concentration ([1]; if present in the brain at 17 nM): less than 0.7% | percent inhibition of Tyrosine Hydroxylase enzymatic activity [2]: 4.0% | percent inhibition of ligand binding to Dopamine D1 [3]: −5.0% | percent inhibition of ligand binding to Dopamine D3 [4]: −13.0% | percent inhibition of ligand binding to Dopamine D5 [5]: 4.0% | percent inhibition of ligand binding to Dopamine Transporter (DAT) [6]: 18.0% | percent inhibition of ligand binding to Adenosine A2A Receptor ([7]; 10.0 μM): 41% | percent occupation of A2A receptors ([7]; brain level 8.5 to 17 nM (dose 0.1 mg/kg), using IC50 of 10 μM): about 0.17%
